Measurements published in patent US20240228446A1, “PREPARATION METHOD FOR BICYCLIC COMPOUND AND APPLICATION AS ANTIFUNGAL AGENT” (priority 2021, published 2024).
≈ marks a conversion by molar mass, not a printed value. Read-outs that look alike come from different tables or passages of the source.

Columns and labels:
[1] = test system: Aspergillus fumigatus ATCC MYA-4609; assay: Minimal inhibitory concentration (MIC) test on fungal growth (CLSI M38, Aspergillus); format: cell-based; conditions: for MIC: Aspergillus fumigatus, read-out: MIC Aspergillus fumigatus ATCC MYA-4609
Description: • RPMI1640 medium: Brand: Gibco, article number: 31800-014 • Sabouraud dextrose agar (SDA): Brand: Hope Bio, article number: HB0253-81 • Voriconazole: Brand: Adamas, article number: 22105A • Amphotericin B: Brand: AbCam, article number: ab141199
MIC test was conducted in accordance with the guidelines and requirements of CLSI M27 (for yeasts) and M38 (for Aspergillus).
Strain preparation: The strains were inoculated 1 day in advance by streaking on SDA plates with glycerol strains stored at −80° C. The strains were cultured at 35° C. and 40 to 60% humidity for 18 to 24 hours. Streak inoculation of Aspergillus fumigatus and Cryptococcus neoformans was required to be done 3 days and 2 days in advance, respectively.
Preparation of culture medium and compounds: The liquid culture medium RPMI was prepared with pure water, and 0.165 mol/L MOPS was added to adjust the pH to 7.0. The mixture was filtered with a 0.22 μm-membrane filter, sterilized, and stored at 4° C. (no more than 3 months). 0.85% physiological saline was sterilized at 121° C. for 30 min and then stored at room temperature (no more than 1 week). The compounds were dissolved in DMSO to 12.8 mg/mL and stored at −20° C.
For Aspergillus, 5 mL of physiological saline was added to cover the mycelium, and the spores were gently scraped off with a spreader. The spore suspension was then transferred to a sterile test tube. An appropriate amount of spore suspension was taken and counted under a microscope using a hemocytometer. Spore concentration was adjusted to approximately 0.4 to 5×10^4 spores/mL using RPMI1640 medium.
The compound was diluted to the highest 800 μg/mL (or 400 μg/mL) with DMSO, and a 10-step 2-fold gradient dilution was performed, resulting in 11 concentrations. 2 μL of the gradient-diluted compound was transferred to the corresponding wells of a 96-well plate, and then 198 μL of the inoculum was transferred to the test plate. The plate was incubated at 35° C. for 24 hours (Aspergillus fumigatus and Cryptococcus neoformans were incubated for 48 and 72 hours, respectively).
After the incubation, the growth of the fungi was visually observed. The lowest concentration of the compound that inhibited the growth of yeast by 50% (inhibited Aspergillus by 100%) was defined as the minimum inhibitory concentration (MIC, μg/mL). A magnifying glass or reading at OD530 nm could be used to assist in determining the MIC. Photos were taken of the test plates for record keeping.

[2] = test system: Candida albicans ATCC MYA-2876; assay: Minimal inhibitory concentration (MIC) test on fungal growth (CLSI M27, yeasts); format: cell-based; conditions: for MIC: Candida albicans, read-out: MIC Candida albicans ATCC MYA-2876
Method in brief: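 Broth microdilution followed CLSI M27 in RPMI1640 buffered with 0.165 M MOPS, pH 7.0, with a final inoculum of 500–2500 CFU/mL. Eleven 2-fold compound concentrations were tested, and plates were incubated 24 h at 35 °C. MIC was the lowest concentration giving 50% growth inhibition, read visually with optional OD530 assistance.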

[3] = lowest concentration inhibiting Aspergillus by 100%, 35° C., 48 hours, RPMI1640
[4] = lowest concentration inhibiting growth of yeast by 50%, 35° C., 24 hours, RPMI1640

| MIC [1, 3] [µg/mL] | MIC [2, 4] [µg/mL] | SMILES | other results |
| --- | --- | --- | --- |
|  |  | O[C@H](COc1ccc(C23CC(C(F)(F)[C@](O)(Cn4cncn4)c4ccc(F)cc4F)(C2)C3)cn1)C(F)(F)F [Compound 98A] | MIC Aspergillus fumigatus ATCC MYA-4609 [1, 3]: 1 µg/mL (≈ 1.83 µM); MIC Candida albicans ATCC MYA-2876 [2, 4]: ≤0.0039 µg/mL |
|  |  | O[C@H](COc1ccc(C23CC(C(F)(F)[C@@](O)(Cn4cncn4)c4ccc(F)cc4F)(C2)C3)cn1)C(F)(F)F [Compound 98B] | MIC Aspergillus fumigatus ATCC MYA-4609 [1, 3]: 2 µg/mL (≈ 3.66 µM); MIC Candida albicans ATCC MYA-2876 [2, 4]: ≤0.0039 µg/mL |
| 1 (≈ 1.94 µM) | 0.0078 (≈ 0.0151 µM) | OC(Cn1cncn1)(c1ccc(F)cc1F)C(F)(F)C12CC(c3ccc(OCC(F)(F)F)cc3)(C1)C2 (stereo not shown) [Compound 2] |  |
| 0.5 (≈ 0.917 µM) | ≤ 0.0039 | O[C@H](COc1ccc(C23CC(C(F)(F)[C@](O)(Cn4cncn4)c4ccc(F)cc4F)(C2)C3)cc1)C(F)(F)F (relative stereo) [Compound 132A] |  |
| 4 (≈ 7.32 µM) | 0.03 (≈ 0.0549 µM) | O[C@H](COc1ccc(C23CC(C(F)(F)C(O)(Cn4cnnn4)c4cc(F)ccc4F)(C2)C3)cc1)C(F)(F)F (stereo in doubt) [Compound 165] |  |
|  |  | OC(Cn1cnnn1)(c1ccc(F)cc1F)C(F)(F)C12CC(c3ccc(OCCN4CCOCC4)cc3)(C1)C2 (stereo not shown) [Compound 65] | MIC ([1]; 48 h): 32 µg/mL (≈ 58.4 µM); MIC ([2]; 24 h): 0.0078 µg/mL (≈ 0.0142 µM) |
| 2 (≈ 4.01 µM) | 0.0078 (≈ 0.0156 µM) | O[C@@](Cn1cnnn1)(c1ccc(F)cc1F)C(F)(F)C12CC(c3ccc(OCC(F)F)cc3)(C1)C2 [Compound 22A] |  |
| 2 (≈ 3.61 µM) | ≤ 0.0039 | OC1(COc2ccc(C34CC(C(F)(F)[C@](O)(Cn5cnnn5)c5ccc(F)cc5F)(C3)C4)cc2)CC(F)(F)C1 [Compound 149A] |  |
| 1 (≈ 1.83 µM) | ≤ 0.0039 | O[C@H](COc1ccc(C23CC(C(F)(F)[C@](O)(Cn4cnnn4)c4ccc(F)cc4F)(C2)C3)cc1)C(F)(F)F [Compound 51A] |  |
| 2 (≈ 3.96 µM) | ≤ 0.0039 | CNC(=O)COc1ccc(C23CC(C(F)(F)C(O)(Cn4cncn4)c4ccc(F)cc4F)(C2)C3)cc1 (stereo not shown) [Compound 35] |  |
| 8 (≈ 14.3 µM) | 0.016 (≈ 0.0285 µM) | CC(Oc1ccc(C23CC(C(F)(F)C(O)(Cn4cnnn4)c4ccc(F)cc4F)(C2)C3)cc1)C(O)C(F)(F)F (stereo not shown) [Compound 135] |  |
| 1 (≈ 1.94 µM) | ≤ 0.0039 | O[C@@](Cn1cnnn1)(c1ccc(F)cc1F)C(F)(F)C12CC(c3ccc(OCC(F)(F)F)cc3)(C1)C2 [Compound 3A] |  |
| 1 (≈ 2.07 µM) | ≤ 0.0039 | OC(Cn1cncn1)(c1ccc(F)cc1F)C(F)(F)C12CC(c3ccc(OC(F)F)cc3)(C1)C2 (stereo not shown) [Compound 81] |  |
| 1 (≈ 2.93 µM) | ≤ 0.0039 | O[C@@](Cn1cncn1)(c1ccc(F)cc1F)C(F)(F)C12CC(C1)C2 [Compound 10A] |  |
|  |  | O[C@@](Cn1cnnn1)(c1ccc(F)cc1F)C(F)(F)C12CC(c3ccc(OCC(F)(F)F)nc3)(C1)C2 [Compound 46A] | MIC Aspergillus fumigatus ATCC MYA-4609 [1, 3]: 2 µg/mL (≈ 3.87 µM); MIC Candida albicans ATCC MYA-2876 [2, 4]: 0.0078 µg/mL (≈ 0.0151 µM) |
|  |  | OC(Cn1cnnn1)(c1ccc(F)cc1F)C(F)(F)C12CC(c3ccc(OC[C@H]4CCCO4)cc3)(C1)C2 (stereo partly shown) [Compound 76] | MIC ([1]; 48 h): 8 µg/mL (≈ 15.4 µM); MIC ([2]; 24 h): 0.016 µg/mL (≈ 0.0309 µM) |
| 1 (≈ 2.01 µM) | ≤ 0.0039 | OC(Cn1cncn1)(c1ccc(F)cc1F)C(F)(F)C12CC(c3ccc(OCC(F)F)cc3)(C1)C2 (stereo not shown) [Compound 23] |  |
| 1 (≈ 2.26 µM) | ≤ 0.0039 | N#Cc1ccc(C23CC(C(F)(F)C(O)(Cn4cncn4)c4ccc(F)cc4F)(C2)C3)cc1 (stereo not shown) [Compound 27] |  |
|  |  | O[C@@H](COc1ccc(C23CC(C(F)(F)[C@](O)(Cn4cnnn4)c4ccc(F)cc4F)(C2)C3)cn1)C(F)(F)F [Compound 97A] | MIC Aspergillus fumigatus ATCC MYA-4609 [1, 3]: 4 µg/mL (≈ 7.31 µM); MIC Candida albicans ATCC MYA-2876 [2, 4]: ≤0.0039 µg/mL |
| 8 (≈ 14.6 µM) | 0.06 (≈ 0.11 µM) | O[C@@H](COc1ccc(C23CC(C(F)(F)C(O)(Cn4cnnn4)c4cc(F)ccc4F)(C2)C3)cc1)C(F)(F)F (stereo in doubt) [Compound 166] |  |
| 1 (≈ 1.88 µM) | 2 (≈ 3.75 µM) | O[C@](Cn1cnnn1)(c1ccc(Cl)cc1F)C(F)(F)C12CC(c3ccc(OCC(F)(F)F)cc3)(C1)C2 [Compound 7B] |  |

| MIC [1, 3] [µg/mL] | MIC [2, 4] [µg/mL] | SMILES | other results |
| --- | --- | --- | --- |
| 4 (≈ 7.9 µM) | 0.0078 (≈ 0.0154 µM) | CC(C)(O)COc1ccc(C23CC(C(F)(F)[C@](O)(Cn4cnnn4)c4ccc(F)cc4F)(C2)C3)cc1 [Compound 36A] |  |
| 2 (≈ 3.96 µM) | ≤ 0.0039 | CC(C)(O)COc1ccc(C23CC(C(F)(F)C(O)(Cn4cncn4)c4ccc(F)cc4F)(C2)C3)cc1 (stereo not shown) [Compound 37] |  |
|  |  | COc1ccc(C23CC(C(F)(F)[C@](O)(Cn4cnnn4)c4ccc(F)cc4F)(C2)C3)cc1 [Compound 1A] | MIC Aspergillus fumigatus ATCC MYA-4609 [1, 3]: 4 µg/mL (≈ 8.92 µM); MIC Candida albicans ATCC MYA-2876 [2, 4]: 0.0078 µg/mL (≈ 0.0174 µM) |
| 8 (≈ 15.8 µM) | 0.016 (≈ 0.0316 µM) | COCCCOc1ccc(C23CC(C(F)(F)C(O)(Cn4cnnn4)c4ccc(F)cc4F)(C2)C3)cc1 (stereo not shown) [Compound 61] |  |
| 4 (≈ 7.32 µM) | 0.0078 (≈ 0.0143 µM) | OC(COc1ccc(C23CC(C(F)(F)C(O)(Cn4cnnn4)c4ccc(F)cc4F)(C2)C3)cc1)C(F)(F)F (stereo not shown) [Compound 51] |  |
| 8 (≈ 15.8 µM) | ≤ 0.0039 | CC(C)(O)COc1ccc(C23CC(C(F)(F)C(O)(Cn4cnnn4)c4ccc(F)cc4F)(C2)C3)cc1 (stereo not shown) [Compound 36] |  |
| 2 (≈ 3.99 µM) | 0.0078 (≈ 0.0156 µM) | OC(Cn1cncn1)(c1ccc(F)cc1F)C(F)(F)C12CC(c3ccc(OC(F)(F)F)cc3)(C1)C2 (stereo not shown) [Compound 25] |  |
| 0.5 (≈ 0.981 µM) | ≤ 0.0039 | O[C@H](COc1ccc(C23CC(CC(O)(Cn4cncn4)c4ccc(F)cc4F)(C2)C3)cc1)C(F)(F)F (stereo partly shown) [Compound 90] |  |
| 8 (≈ 14.4 µM) | ≤ 0.0039 | OC1(COc2ccc(C34CC(C(F)(F)C(O)(Cn5cnnn5)c5ccc(F)cc5F)(C3)C4)cc2)CC(F)(F)C1 (stereo not shown) [Compound 149] |  |
| 2 (≈ 3.86 µM) | ≤ 0.0039 | O[C@H](COc1ccc(C23CC(C(F)(F)[C@](O)(Cn4cnnn4)c4ccc(F)cc4F)(C2)C3)cc1)C1CC1 (relative stereo) [Compound 144A] |  |
| 2 (≈ 3.54 µM) | ≤ 0.0039 | O[C@H](COc1ccc(C23CC(C(F)(F)[C@](O)(Cn4cnnn4)c4ccc(F)cc4F)(C2)C3)cc1F)C(F)(F)F [Compound 134A] |  |
| 4 (≈ 7.09 µM) | 0.0078 (≈ 0.0138 µM) | O[C@H](COc1ccc(C23CC(C(F)(F)C(O)(Cn4cnnn4)c4ccc(F)cc4F)(C2)C3)cc1F)C(F)(F)F (stereo partly shown) [Compound 134] |  |
| 8 (≈ 15.3 µM) | 0.0078 (≈ 0.0149 µM) | OC(Cn1cnnn1)(c1ccc(F)cc1F)C(F)(F)C12CC(c3ccc(OCC4(F)COC4)cc3)(C1)C2 (stereo not shown) [Compound 121] |  |
|  |  | CNC(=O)COc1ccc(C23CC(C(F)(F)[C@](O)(Cn4cncn4)c4ccc(F)cc4F)(C2)C3)cc1 [Compound 35A] | MIC Aspergillus fumigatus ATCC MYA-4609 [1, 3]: 1 µg/mL (≈ 1.98 µM); MIC Candida albicans ATCC MYA-2876 [2, 4]: ≤0.0039 µg/mL |
|  |  | N#Cc1ccc(C23CC(C(F)(F)C(O)(Cn4cncn4)c4ccc(F)cc4F)(C2)C3)cn1 (stereo not shown) [Compound 128] | MIC Aspergillus fumigatus ATCC MYA-4609 [1, 3]: 4 µg/mL (≈ 9.02 µM); MIC Candida albicans ATCC MYA-2876 [2, 4]: 0.0078 µg/mL (≈ 0.0176 µM) |
|  |  | O[C@H](COc1ccc(C23CC(C(F)(F)[C@@](O)(Cn4cnnn4)c4ccc(F)cc4F)(C2)C3)cn1)C(F)(F)F [Compound 97B] | MIC Aspergillus fumigatus ATCC MYA-4609 [1, 3]: 8 µg/mL (≈ 14.6 µM); MIC Candida albicans ATCC MYA-2876 [2, 4]: 0.0078 µg/mL (≈ 0.0142 µM) |
| 4 (≈ 7.6 µM) | ≤ 0.0039 | CS(=O)(=O)COc1ccc(C23CC(C(F)(F)[C@](O)(Cn4cnnn4)c4ccc(F)cc4F)(C2)C3)cc1 (stereo in doubt) [Compound 131A] |  |
| 8 (≈ 15.1 µM) | ≤ 0.0039 | OC(COc1ccc(C23CC(C(F)(F)C(O)(Cn4cnnn4)c4ccc(F)cc4F)(C2)C3)cc1)C(F)F (stereo not shown) [Compound 137] |  |
| 1 (≈ 2.31 µM) | ≤ 0.0039 | Oc1ccc(C23CC(C(F)(F)[C@](O)(Cn4cncn4)c4ccc(F)cc4F)(C2)C3)cc1 [Compound 21A] |  |
|  |  | OC(COc1ccc(C23CC(C(F)(F)C(O)(Cn4cncn4)c4ccc(F)cc4F)(C2)C3)cn1)C(F)(F)F (stereo not shown) [Compound 98] | MIC Aspergillus fumigatus ATCC MYA-4609 [1, 3]: 2 µg/mL (≈ 3.66 µM); MIC Candida albicans ATCC MYA-2876 [2, 4]: ≤0.0039 µg/mL |
